Test results: ChEMBL document CHEMBL1156829 (Proc Natl Acad Sci U S A, 2008)
Where “and” joins values, the source holds several entries; their conditions need not be identical. Identical values can stand only once.

Assays:
[1] = NOVARTIS: Cytotoxicity against human hepatocellular carcinoma cell line (Huh7); format: toxicity, cell-based, Huh-7; details: Huh7 cells (hepatocellular carcinoma cell line)
Plasmodium falciparum [2] = test: NOVARTIS: Inhibition of Plasmodium falciparum 3D7 (drug-susceptible) proliferation in erythrocyte-based infection assay; format: functional, organism-based
Plasmodium falciparum [3] = test: NOVARTIS: Inhibition of Plasmodium falciparum W2 (drug-resistant) proliferation in erythrocyte-based infection assay; format: functional, organism-based; details: read-out: EC50

Structure (SMILES)	CC50 [1]	EC50 (Plasmodium falciparum [2]; Plasmodium falciparum, 3D7)	EC50 (Plasmodium falciparum [3]; Plasmodium falciparum, W2)	EC50 (Plasmodium falciparum [2])	EC50 (Plasmodium falciparum [3])
CC(CCCC(C)(C)O)Nc1cncc(-c2ccc(C(N)=O)cc2)n1 (stereo not given)	> 10 µM	> 1.25 µM	> 1.2 µM	–	–
C=CCSC1=NC2(CC(c3ccccc3)c3cc(Cl)c(O)cc3O2)CC(C)(C)N1 (stereo not given)	> 10 µM	> 1.19 µM	1.52 µM	–	–
COc1ccc(-n2nc3c(c2NC(=O)C=Cc2cc(OC)c(OC)c(OC)c2)CSC3)cc1	> 100 µM	0.392 µM	0.294 µM	–	–
CCCCOC(=O)c1ccc(NC2=C(c3ccc(OC)cc3)C(=O)c3ccccc32)cc1	> 100 µM	1.21 µM	0.758 µM	–	–
Cc1ccn2c(NC(C)(C)CC(C)(C)C)c(-c3ccccc3OC(=O)C(c3ccccc3)c3ccccc3)nc2c1	> 1.12 µM	0.746 µM	0.0718 µM	–	–
Cc1ccc(-c2c3c(nc4sc(C(=O)Nc5ccc(Cl)cc5)c(N)c24)CCCC3)o1	> 100 µM	8.31 µM	6.78 µM	–	–
C=CCn1c(=O)c(C(=O)NCC[N+](CC)(CC)CC=C)c(O)c2ccccc21	> 100 µM	1.13 µM	0.385 µM	–	–
CC1=C(C(=O)OCCC(C)C)C(c2ccccc2)C(C(=O)OCCC(C)C)=C(C)N1	> 10 µM	> 0.918 µM	> 1.63 µM	–	–
C=C[C@H]1CN2CC[C@H]1C[C@@H]2[C@@H](OC(=O)C(C)C)c1ccnc2ccccc12	> 10 µM	0.318 µM	0.199 µM	–	–
Cc1ccc(CN2CCN(Cc3ccccc3)CC2)o1	> 8.97 µM	> 1.25 µM	1.3 µM	–	–
CCCc1c2ccc(C)n2cc[n+]1CC(=O)c1ccc(OC)cc1	> 100 µM	0.806 µM	1.23 µM	–	–
c1ccc(-c2cc(N3CCN(c4ccccn4)CC3)nc(-c3ccccn3)n2)nc1	3.03 µM	0.0729 µM	0.0767 µM	–	–
CCc1ccc(C(Nc2cc(C)ccn2)c2ccc3cccnc3c2O)cc1 (stereo not given)	> 100 µM	1.47 µM	0.163 µM	–	–
CCN1CCN(C/C=C/c2ccccc2[N+](=O)[O-])CC1	> 10 µM	> 1.25 µM	1.41 µM	–	–
Fc1ccc(CN2CCc3nc(N4CCCCC4)sc3C2)cc1F	> 100 µM	1.1 µM	1.07 µM	–	–
N#Cc1cc(C#N)c(N2CCN(c3cccc(Cl)n3)CC2)nc1N	> 10 µM	0.791 µM	0.714 µM	–	–
O=c1c(NCc2ccco2)nc2cc(Cl)ccc2n1CCNc1ncc(C(F)(F)F)cc1Cl	63.8 µM	0.81 µM	2.33 µM	–	–
COC1=CC(=O)c2c(ccc3c(OC)c(O)ccc23)C1=O	> 10 µM	0.2 µM	0.302 µM	–	–
Cc1ccc(S(=O)(=O)NCCCCNc2ccnc3cc(Cl)ccc23)cc1	> 9.02 µM	0.575 µM	< 0.0204 µM	–	–
CCOc1ccc(CCN2C(=S)N(c3cccc(C(F)(F)F)c3)C(=O)C2CC(=O)Nc2ccc(C(=O)OC)cc2)cc1OCC (stereo not given)	28.5 µM	1.74 µM	0.58 µM	–	–
Cc1cccc2nc(N)nc(N)c12	> 10 µM	0.753 µM	> 1.25 µM	–	–
CC(=O)Nc1ccc(S(=O)(=O)N(C)CC(=O)NN=Cc2ccncc2)cc1	> 100 µM	> 5.76 µM	1.36 µM	–	–
COCCCNC(=O)C=Cc1ccc(C(C)C)cc1	> 100 µM	5.94 µM	3.58 µM	–	–
C=CCOc1ccccc1CN1CCN(c2ccccn2)CC1	> 98.5 µM	> 9.99 µM	4.85 µM	–	–

Structure (SMILES)	CC50 [1]	EC50 (Plasmodium falciparum [2]; Plasmodium falciparum, 3D7)	EC50 (Plasmodium falciparum [3]; Plasmodium falciparum, W2)	EC50 (Plasmodium falciparum [2])	EC50 (Plasmodium falciparum [3])
O=C(C1CC1)N1CCc2cc(Br)cc(S(=O)(=O)N3CCCCC3)c21	> 100 µM	8.14 µM	2.64 µM	–	–
Cc1cccc(NC(=O)c2ccc3ccccc3n2)n1	> 10 µM	> 0.547 µM	> 1.09 µM	–	–
Cc1cc(C)nc(Nc2nc(C)c3cc(C)c(C)cc3n2)n1	> 100 µM	1.32 µM	0.829 µM	–	–
CC(=NO)c1ccc2c(c1)C(C)(C)CCC2(C)C	37.1 µM	3.51 µM	3.9 µM	–	–
O=C(CN1CCCC1)Nc1ccc(Cc2ccc(NC(=O)CN3CCCC3)cc2)cc1	18.8 µM	0.307 µM	0.367 µM	–	–
N#Cc1cc(Oc2ccc(-c3cnc4ccccc4n3)cc2)nc2ccccc12	> 100 µM	> 12.5 µM	6.15 µM	–	–
CC(C)CNC(=O)c1cnc(NCCCn2ccnc2)nc1NCCc1ccccc1	> 10 µM	0.6 µM	0.61 µM	–	–
CCCCCCCCCC(=O)Oc1ccccc1-c1nc2cc(C)ccn2c1NC(C)(C)CC(C)(C)C	> 10 µM	1.01 µM	0.0888 µM	–	–
Nc1c(C(=O)NCc2ccccc2)nnn1Cc1ccc(F)cc1Cl	> 10 µM	> 0.86 µM	0.722 µM	–	–
COC(=O)C1=CN(Cc2ccc(Cl)cc2)C=C(C(=O)OC)C1c1ccc(Cl)c(Cl)c1	> 100 µM	> 8.19 µM	2.36 µM	–	–
CCc1ccc2c(c1)C1(NN=C(c3ccc(C)cc3)S1)C(=O)N2 (stereo not given)	23.8 µM	1.49 µM	2.1 µM	–	–
COc1ccc(CCN2C(=O)c3ccc(Oc4ccc(NC(=O)c5oc(=O)c6ccccc6c5-c5ccccc5)cc4)cc3C2=O)cc1OC	> 100 µM	> 12.5 µM	4.8 µM	–	–
CCC(c1nc2ccccc2c(=O)n1-c1ccc(F)cc1)N(CCc1ccccc1)C(=O)CCc1ccccc1 (stereo not given)	> 10 µM	1.52 µM	1.54 µM	–	–
COc1ccc(Br)cc1CNC(=O)CCCN1C(=O)COc2ccc(C)cc21	> 100 µM	1.88 µM	0.628 µM	–	–
COCCN1C(=O)C(O)=C(C(=O)c2ccccc2)C1c1ccccc1[N+](=O)[O-] (stereo not given)	> 100 µM	> 12.5 µM	1.71 µM	–	–
O=C(COc1ccccc1)NC(c1ccc([N+](=O)[O-])cc1)c1cc(Cl)c2cccnc2c1O (stereo not given)	> 80.6 µM	0.605 µM	0.434 µM	–	–
COC(=O)N(C)C(C)(C)C(C)=NOC(=O)c1ccccc1	> 10 µM	> 1.62 µM	> 1.18 µM	–	–
CCOC(=O)c1cnc2ccc(OCC)cc2c1NCCN(CC)CC	> 10 µM	0.832 µM	> 0.988 µM	–	–
CCN(CC)c1ccc(NC(=O)C2Cc3ccccc3CN2S(=O)(=O)c2ccc(F)cc2)cc1 (stereo not given)	> 100 µM	7.43 µM	4.53 µM	–	–
CCN(CC)c1ccc(NCc2ccc3c(c2)OCO3)cc1	24.6 µM	0.603 µM	0.805 µM	–	–
CCc1ccc(-n2c(C(CC)N(CCC(C)C)C(=O)Nc3ccc(Cl)c(Cl)c3)nc3ccccc3c2=O)cc1 (stereo not given)	> 10 µM	> 1.25 µM	> 0.83 µM	–	–
CCN1CCN(Cc2c(O)ccc3c(=O)c(Oc4cc(C)cc(C)c4)c(C(F)(F)F)oc23)CC1	> 100 µM	3.63 µM	0.296 µM	–	–
CCOc1cc(Br)cc(C=C2NC(=S)NC2=O)c1O	> 100 µM	> 3.68 µM	0.554 µM	–	–
CN(/C=C/C1=[N+](C)c2ccc(Cl)cc2C1(C)C)c1ccccc1	> 92.8 µM	–	–	1.36 µM and 0.455 µM	0.9 µM and 2.04 µM

Structure (SMILES)	CC50 [1]	EC50 (Plasmodium falciparum [2]; Plasmodium falciparum, 3D7)	EC50 (Plasmodium falciparum [3]; Plasmodium falciparum, W2)	EC50 (Plasmodium falciparum [2])	EC50 (Plasmodium falciparum [3])
CN1CCc2c(sc3nc(SCC(=O)NCCc4ccccc4)n(-c4ccc(Cl)cc4)c(=O)c23)C1	68.5 µM	1.31 µM	1.91 µM	–	–
CCN(CC)S(=O)(=O)c1cc(C(=O)O)ccc1Cl	> 10 µM	0.64 µM	> 1.17 µM	–	–
CCCCN1C(=O)NC(c2ccc(NC(=O)c3cccs3)cc2)C(C(=O)OC(C)C)=C1C (stereo not given)	> 100 µM	8.76 µM	3.17 µM	–	–
O=C(NCCCCNc1ccnc2cc(Cl)ccc12)c1ccc(Br)cc1	> 8.73 µM	0.218 µM	0.291 µM	–	–
CC(C)c1cccc(C(C)C)c1NC(=O)N(Cc1ccccc1)C(C)c1nc2ccccc2c(=O)n1-c1ccc(Cl)cc1 (stereo not given)	> 1.46 µM	0.985 µM	1.02 µM	–	–
Cc1nc2c(C#N)c(C)nn2c(C)c1Cc1cccc(F)c1	> 10 µM	0.437 µM	0.444 µM	–	–
O=C(Nc1ccc(-c2nc3ccccc3[nH]2)cc1)c1ccccc1Oc1ccccc1	> 100 µM	1.58 µM	2.14 µM	–	–
CCN(CC)CCNc1ccnc2cc3ccccc3cc12	20.3 µM	0.0286 µM	0.0313 µM	–	–
COc1ccc(NC(=O)Cn2c(-c3ccc(OC)cc3)cn(-c3ccc(C)cc3)c2=O)cc1	> 10 µM	0.889 µM	> 0.676 µM	–	–
CON(C)C(=O)c1cccc2ccccc12	> 10 µM	0.856 µM	> 1.25 µM	–	–
CCC1(C)CC(CCNCc2ccccc2O)(c2ccc(OC)cc2)CCO1 (stereo not given)	21.4 µM	0.455 µM	0.0765 µM	–	–
CN(C)CCCNc1ncnc2c1[nH]c1ccc(Cl)cc12	20.7 µM	0.0261 µM	0.0437 µM	–	–
c1ccc(CN2CCC(NCc3c[nH]c4ccccc34)CC2)cc1	> 10 µM	0.208 µM	0.12 µM	–	–
O=C(COC(c1ccccc1)c1c(Cl)cncc1Cl)N1CCC(c2ccccn2)C1 (stereo not given)	> 100 µM	> 12.5 µM	6.96 µM	–	–
Cn1c(=O)n(C)c2cc(NC(=O)CCl)ccc21	12.2 µM	1.47 µM	0.444 µM	–	–
CC1CCC(Nc2ccnc3cc(Cl)ccc23)CC1 (stereo not given)	> 10 µM	0.843 µM	0.933 µM	–	–
COc1cncc(-c2cncc(-c3ccc(Oc4ccccc4)cc3)n2)c1	> 100 µM	0.0439 µM	0.0798 µM	–	–
CCCC(C(=O)NCCC(C)C)N(C(=O)c1snc(C(N)=O)c1N)c1ccc(C(C)C)cc1 (stereo not given)	> 100 µM	5.44 µM	> 12.5 µM	–	–
BrC(Br)(Br)c1ncc(-c2ccccc2)cn1	> 10 µM	0.0433 µM	0.143 µM	–	–
O=C1Nc2ccccc2C12Nc1ccccc1-c1nc3ccccc3n12 (stereo not given)	> 100 µM	1.09 µM	0.502 µM	–	–
Cc1ccc2[nH]c3c(NCCN4CCCC4)ncnc3c2c1	46.5 µM	0.514 µM	0.737 µM	–	–
CS(=O)(=O)c1cnc2ncnn2c1C1CCCN(C(=O)c2ccccn2)C1 (stereo not given)	> 10 µM	0.311 µM	> 1.25 µM	–	–
